Tests used:
[1] = logP by HPLC on reverse-phase column (EEC Directive 79/831 Annex V.A8); type: physicochemical; conditions: HPLC-MS
Description: The logP values reported in the above Tables and Preparation Examples were determined according to EEC Directive 79/831 Annex V.A8 by HPLC (High Performance Liquid Chromatography) on a reverse-phase column (C18). Temperature 43° C.

Boophilus microplus [2] = experiment: Boophilus microplus test (BOOPMI injection), Example 1; type: in vivo; conditions: application rate 20 μg/animal, injected into abdomen, after 7 days
Description: Boophilus microplus Test (BOOPMI Injection) • Solvent: dimethyl sulphoxide To prepare an active ingredient formulation, 10 mg of active ingredient are mixed with 0.5 ml of solvent and the concentrate is diluted with water to the desired concentration. The active ingredient solution was injected into the abdomen (Boophilus microplus), and the animals were transferred to dishes and stored in a climate-controlled room. The efficacy was assessed by the number of fertile eggs laid. After 7 days, the efficacy in % is determined. 100% means that no tick laid fertile eggs.

Lucilia cuprina larvae [3] = experiment: Lucilia cuprina test (LUCICU), Example 3; type: in vivo; conditions: application rate 20 ppm, treated horsemeat, after 2 days
Description: (§1) Lucilia cuprina Test (LUCICU) • Solvent: dimethyl sulphoxide To prepare an active ingredient formulation, 10 mg of active ingredient are mixed with 0.5 ml of dimethyl sulphoxide, and the concentrate is diluted with water to the desired concentration. Vessels containing horsemeat which has been treated with the active ingredient formulation of the desired concentration are populated with Lucilia cuprina larvae. After 2 days, the kill rate in % is determined. 100% means that all larvae were killed; 0% means that no larvae were killed.

Ctenocephalides felis = Ctenocephalides felis oral (CTECFE), Example 2; type: in vivo; conditions: application rate 20 ppm in citrated cow's blood, after 2 days
Description: Ctenocephalides felis Oral ([…]) • Solvent: 1 part by weight of dimethyl sulphoxide For the purpose of preparing an active ingredient formulation, 10 mg of active ingredient are mixed with 0.5 ml of dimethyl sulphoxide. A portion of the concentrate was diluted with citrated cow's blood and the desired concentration was prepared. 20 unfed adult fleas (Ctenocephalides felis) are placed into a chamber sealed at the top and bottom with gauze. A metal cylinder with its lower end sealed with Parafilm is placed onto the chamber. The cylinder contains the blood-active ingredient preparation, which can be consumed by the fleas through the Parafilm membrane. After 2 days, the kill rate in % is determined. 100% means that all fleas were killed; 0% means that no fleas were killed.

Boophilus microplus [4] = experiment: Boophilus microplus test (BOOPMI injection), Example 11; type: in vivo; conditions: application rate 20 μg/animal, injected into abdomen, after 7 days
Method in brief: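 Efficacy rated from fertile egg laying: 100% means none of the ticks laid fertile eggs, read after 7 days. Compound, dissolved and diluted in DMSO, was delivered by abdominal injection, and ticks were kept in dishes under climate control.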

Lucilia cuprina larvae [5] = experiment: Lucilia cuprina test (LUCICU), Example 13; type: in vivo; conditions: application rate 100 ppm, treated horsemeat, after 2 days
Description: as §1, with “prepare an appropriate active ingredient” for “prepare an active ingredient”, “populated with about 20 Lucilia cuprina” for “populated with Lucilia cuprina”

[6] = test system: armyworm (Spodoptera frugiperda); experiment: Spodoptera frugiperda test (SPODFR spray treatment), Example 15; type: in vivo; conditions: maize leaf discs sprayed, after 7 days
Method in brief: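 Caterpillars placed on dried, sprayed Zea mays leaf discs; formulation of acetone, dimethylformamide and emulsifier diluted with emulsifier-containing water to test concentration. Percent kill scored on day 7.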

Musca domestica adults = experiment: Musca domestica test (MUSCDO), Example 14; type: in vivo; conditions: application rate 100 ppm, treated sponge, after 2 days
Description: Musca domestica Test (MUSCDO) • Solvent: dimethyl sulphoxide To prepare an appropriate active ingredient formulation, 10 mg of active ingredient are mixed with 0.5 ml of dimethyl sulphoxide, and the concentrate is diluted with water to the desired concentration. Vessels containing a sponge which has been treated with the active ingredient formulation of the desired concentration are populated with Musca domestica adults. After 2 days, the kill rate in % is determined. 100% means that all flies were killed; 0% means that no flies were killed.

[7] = test system: green peach aphid (Myzus persicae); experiment: Myzus test (MYZUPE spray treatment), Example 17; type: in vivo; conditions: china cabbage leaf discs sprayed, after 6 days
Method in brief: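 Efficacy recorded at 6 days as % kill, where 100% means every aphid dead and 0% none. Spray applied to Brassica pekinensis leaf discs bearing mixed-stage aphids; active ingredient dissolved in acetone with dimethylformamide and emulsifier, then diluted with emulsifier-containing water.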

[8] = test system: mustard beetle (Phaedon cochleariae); experiment: Phaedon test (PHAECO spray treatment), Example 7; type: in vivo; conditions: application rate 20 g/ha, china cabbage leaf discs sprayed, after 7 days
Method in brief: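 Spray formulation (acetone/DMF with alkylaryl polyglycol ether, diluted in emulsifier-containing water) applied to Chinese cabbage leaf discs, which were dried and then stocked with mustard beetle larvae. Efficacy scored at 7 days as % larvae killed (100% all, 0% none).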

[9] = test system: red spider mite (Tetranychus urticae); experiment: Tetranychus test, OP-resistant (TETRUR spray treatment), Example 8; type: in vivo; conditions: application rate 20 g/ha, common bean leaf discs sprayed, after 6 days
Description: Tetranychus Test, OP-resistant (TETRUR Spray Treatment)
• Solvent: 78.0 parts by weight of acetone • 1.5 parts by weight of dimethylformamide • Emulsifier: 0.5 part by weight of alkylaryl polyglycol ether
To prepare an active ingredient formulation, 1 part by weight of active ingredient is mixed with the stated amounts of solvent and emulsifier, and the concentrate is diluted with emulsifier-containing water to the desired concentration.
Leaf discs from the common bean (Phaseolus vulgaris) infested by all stages of the red spider mite (Tetranychus urticae) are sprayed with an active ingredient formulation of the desired concentration.
After 6 days, the efficacy in % is determined. 100% means that all spider mites were killed; 0% means that no spider mites were killed.

Row | SMILES | logP [1] | efficacy in % (fertile eggs laid) (Boophilus microplus [2]) | kill rate in % (efficacy) (Lucilia cuprina larvae [3]) | kill rate in % (efficacy) (Ctenocephalides felis) | efficacy in % (fertile eggs laid) (Boophilus microplus [4]) | kill rate in % (efficacy) (Lucilia cuprina larvae [5]) | efficacy in % ([6]; application rate 500 g/ha) | kill rate in % (efficacy) (Musca domestica adults) | efficacy in % ([7]; application rate 500 g/ha) | efficacy in % [8] | efficacy in % [9] | efficacy in % ([7]; application rate 100 g/ha) | efficacy in % ([6]; application rate 100 g/ha)
1 | O=C(/C=C/c1ccc(C(=O)NC2CC2)c(C(F)(F)F)c1)NC(c1cc(Cl)cc(Cl)c1)C(F)(F)F (centres unmarked) [Ia-24] | HPLC-MS: logP = 3.5; mass | 100% | 80% | 100% | 100% |  |  |  |  |  |  |  | 
2 | CC(NC(=O)c1ccc(/C=C/C(=O)NC(c2c(F)cccc2F)C(F)(F)F)cc1C(F)(F)F)C(F)(F)F (centres unmarked) [Ia-29] | HPLC-MS: logP = 3.41; mass | 100% |  |  | 100% | 80% |  |  |  |  |  |  | 
3 | O=C(/C=C/c1ccc(C(=O)NCc2ccccc2)c(C(F)(F)F)c1)NC(c1cccc(C(F)(F)F)c1)C(F)(F)F (centres unmarked) [Ia-31] | HPLC-MS: logP = 3.68; mass | 100% |  | 95% | 100% | 90% |  |  |  |  |  |  | 
4 | O=C(/C=C/c1ccc(C(=O)NCc2ccccn2)c(C(F)(F)F)c1)NC(c1ccc(Cl)c(Cl)c1)C(F)(F)F (centres unmarked) [Ia-32] | HPLC-MS: logP = 2.98; mass | 100% |  | 100% | 100% |  | 83% |  |  |  |  |  | 
5 | O=C(/C=C/c1ccc(C(=O)NC2CC2)c(Br)c1)NC(c1cccc(C(F)(F)F)c1)C(F)(F)F (centres unmarked) [Ia-42] | HPLC-MS: logP = 3.23; mass | 100% | 100% | 100% | 100% |  |  |  |  |  |  |  | 
6 | O=C(/C=C/c1ccc(C(=O)NCC(F)F)c(C(F)(F)F)c1)NC(c1cccc(C(F)(F)F)c1)C(F)(F)F (centres unmarked) [Ia-57] | HPLC-MS: logP = 3.48; mass |  |  |  | 100% |  |  | 100% | 100% | 100% | 90% |  | 
7 | COCCNC(=O)c1ccc(/C=C/C(=O)NC(c2cccc(C(F)(F)F)c2)C(F)(F)F)cc1C(F)(F)F (centres unmarked) [Ia-58] | HPLC-MS: logP = 3.12; mass | 100% |  | 98% | 100% |  | 83% |  | 100% | 100% | 90% |  | 
8 | O=C(/C=C/c1ccc(C(=O)NCc2ccc(F)cn2)c(C(F)(F)F)c1)NC(c1cccc(C(F)(F)F)c1)C(F)(F)F (centres unmarked) [Ia-73] | HPLC-MS: logP = 3.31; mass | 100% |  | 95% | 100% | 80% |  |  |  | 100% | 100% |  | 
9 | O=C(/C=C/c1ccc(C(=O)NCc2ccc(Cl)nc2)c(C(F)(F)F)c1)NC(c1cccc(C(F)(F)F)c1)C(F)(F)F (centres unmarked) [Ia-80] | HPLC-MS: logP = 3.65; mass | 100% |  | 100% | 100% | 80% |  |  |  | 100% |  |  | 
10 | O=C(/C=C/c1ccc(C(=O)NC2COC2)c(Br)c1)NC(c1cccc(C(F)(F)F)c1)C(F)(F)F (centres unmarked) [Ia-94] | HPLC-MS: logP = 2.8 mass |  |  |  | 100% | 95% |  |  |  | 100% | 80% |  | 
11 | CC(NC(=O)c1ccc(/C=C/C(=O)NC(c2cccc(C(F)(F)F)c2)C(F)(F)F)cc1C(F)(F)F)c1ccccn1 (centres unmarked) [Ia-128] | HPLC-MS: logP = 3.22; mass |  |  |  | 100% | 90% |  |  |  |  |  |  | 
12 | CC(NC(=O)c1ccc(/C=C/C(=O)NC(c2cccc(C(F)(F)F)c2)C(F)(F)F)cc1Br)c1ccccn1 (centres unmarked) [Ia-134] | HPLC-MS: logP = 3.11; mass |  |  |  | 100% | 90% |  |  |  |  |  |  | 
13 | CC(Cn1cccn1)NC(=O)c1ccc(/C=C/C(=O)NC(c2cccc(C(F)(F)F)c2)C(F)(F)F)cc1C(F)(F)F (centres unmarked) [Ia-139] | HPLC-MS: logP = 3.42; mass |  |  |  | 100% | 80% |  |  |  |  |  |  | 
14 | N#CC1CC1NC(=O)c1ccc(/C=C/C(=O)NC(c2cccc(C(F)(F)F)c2)C(F)(F)F)cc1C(F)(F)F (centres unmarked) [Ia-140] | HPLC-MS: logP = 3.37; mass |  |  |  | 100% |  |  | 100% |  |  |  | 90% | 100%
15 | CC(C#N)NC(=O)c1ccc(/C=C/C(=O)NC(c2cccc(C(F)(F)F)c2)C(F)(F)F)cc1C(F)(F)F (centres unmarked) [Ia-141] | HPLC-MS: logP = 3.39; mass |  |  |  | 100% |  |  | 100% |  |  |  | 100% | 100%
16 | NC(=O)c1ccc(/C=C/C(=O)NC(c2cccc(C(F)(F)F)c2)C(F)(F)F)cc1C(F)(F)F (centres unmarked) [Ia-142] | HPLC-MS: logP = 2.89; mass |  |  |  | 100% | 90% |  | 90% |  |  |  | 100% | 
17 | CNC(=O)c1ccc(/C=C/C(=O)NC(c2cccc(C(F)(F)F)c2)C(F)(F)F)cc1C(F)(F)F (centres unmarked) [Ia-147] | HPLC-MS: logP = 3.09; mass |  |  |  | 100% | 80% |  |  |  |  |  |  | 100%
18 | CC(C)ONC(=O)c1ccc(/C=C/C(=O)NC(c2cccc(C(F)(F)F)c2)C(F)(F)F)cc1C(F)(F)F (centres unmarked) [Ia-149] | HPLC-MS: logP = 3.48; mass |  |  |  | 100% |  |  | 100% |  |  |  |  | 100%
19 | O=C(/C=C/c1ccc(C(=O)NC2CSC2)c(Cl)c1)NC(c1cccc(C(F)(F)F)c1)C(F)(F)F (centres unmarked) [Ia-152] | HPLC-MS: logP = 3.51; mass |  |  |  | 100% | 90% |  |  |  |  |  | 80% | 
20 | CC(NC(=O)c1ccc(/C=C/C(=O)NC(c2cccc(C(F)(F)F)c2)C(F)(F)F)cc1Cl)C(F)(F)F (centres unmarked) [Ia-158] | HPLC-MS: logP = 3.78; mass |  |  |  | 100% |  |  | 100% |  |  |  | 80% | 100%
21 | O=C(/C=C/c1ccc(C(=O)NCC2CC2)c(Cl)c1)NC(c1cccc(C(F)(F)F)c1)C(F)(F)F (centres unmarked) [Ia-163] | HPLC-MS: logP = 3.54; mass |  |  |  | 100% |  |  | 100% |  |  |  | 100% | 

— US8889878B2, “Haloalky-substituted amides as insecticides and acaricides” (Bayer CropScience AG, priority 2009, dated 2014)
